The text below walks through data of PubChem BioAssay AID194 (DTP/NCI, 2004).

The subject of the assay is BDF1 mice, B16 melanoma s.c., survival/tumor T/C. Nature of the assay: NCI In Vivo Anticancer Drug Screen. Data for tumor model B16 Melanoma (subcutaneous) in B6D2F1 (BDF1) mice. As to the method:
The antitumor activity of compounds was measured in mice bearing transplantable tumors. Survival or tumor size were measured and the results are expressed as the measurement made in the treated group (T) divided by the measurement made in the vehicle treated control group (C). The tumor model used in this assay is B16 Melanoma (subcutaneous) in B6D2F1 (BDF1) mice

SMILES strings stand for the structures. Several values for one entry are separate records, joined by “and”; a condition that tells them apart may be missing. Equal values may be shown once. Results filed as inconclusive are left out.

As to `O=C1C(=O)c2ccccc2C(O)=C1CC=C(Cl)Cl`, the T/C (endpoint: median survival time, dose: 8.0 mg/kg/injection, schedule: Q01DX009 (ip), vehicle: saline + alcohol, higher = longer survival) was 87 % of control; the T/C (endpoint: median survival time, dose: 16.0 mg/kg/injection, schedule: Q01DX009 (ip), vehicle: saline + alcohol, higher = longer survival) was 109 % of control; the T/C (endpoint: median survival time, dose: 32.0 mg/kg/injection, schedule: Q01DX009 (ip), vehicle: saline + alcohol, higher = longer survival) was 77 % of control; the T/C (endpoint: median tumor weight (est.), dose: 12.5 mg/kg/injection, schedule: Q01DX009 (ip), vehicle: Klucel (hydroxypropylcellulose) (HPC), higher = larger tumour) is 94 % of control and 104 % of control and 108 % of control; the T/C (endpoint: median tumor weight (est.), dose: 50.0 mg/kg/injection, schedule: Q01DX009 (ip), vehicle: Klucel (hydroxypropylcellulose) (HPC), higher = larger tumour) is 53 % of control and 55 % of control and 64 % of control.

As to `c1ccc(-c2csc3c4ccccc4c4ccccc4[n+]23)cc1`, the T/C is 114 % of control (endpoint: median survival time, dose: 0.5 mg/kg/injection, schedule: Q01DX009 (ip), vehicle: suspension in saline, higher = longer survival) and 124 % of control (endpoint: median survival time, dose: 1.0 mg/kg/injection, schedule: Q01DX009 (ip), vehicle: suspension in saline, higher = longer survival).

For the compound `Nc1nncs1`, the T/C reads like this: (endpoint: median survival time, dose: 59.0 mg/kg/injection, schedule: Q01DX009 (ip), vehicle: saline with Tween-80, higher = longer survival) 108 % of control; (endpoint: median survival time, dose: 1200.0 mg/kg/injection, schedule: Q04DX003 (ip), vehicle: saline with Tween-80, higher = longer survival) 121 % of control; (endpoint: median survival time, dose: 1800.0 mg/kg/injection, schedule: Q04DX003 (ip), vehicle: saline with Tween-80, higher = longer survival) 104 % of control; (endpoint: median survival time, dose: 2000.0 mg/kg/injection, schedule: Q01DX001 (ip), vehicle: saline with Tween-80, higher = longer survival) 108 % of control; (endpoint: median survival time, dose: 3000.0 mg/kg/injection, schedule: Q01DX001 (ip), vehicle: saline with Tween-80, higher = longer survival) 113 % of control.

`O=C1c2c(O)ccc(O)c2C(=O)c2c(NCCNCCO)ccc(NCCNCCO)c21`: the T/C (endpoint: median survival time, dose: 0.25 mg/kg/injection, schedule: Q01DX009 (ip), vehicle: other, higher = longer survival) is 102 % of control; the T/C (endpoint: median survival time, dose: 0.5 mg/kg/injection, schedule: Q01DX009 (ip), vehicle: other, higher = longer survival) was 89 % of control; the T/C (endpoint: median survival time, dose: 0.5 mg/kg/injection, schedule: Q01DX009 (ip), vehicle: saline with Tween-80, higher = longer survival) is 120 % of control; the T/C (endpoint: median survival time, dose: 1.0 mg/kg/injection, schedule: Q01DX009 (ip), vehicle: other, higher = longer survival) is 106 % of control; the T/C (endpoint: median survival time, dose: 2.0 mg/kg/injection, schedule: Q01DX009 (ip), vehicle: other, higher = longer survival) was 90 % of control; the T/C (endpoint: median survival time, dose: 2.0 mg/kg/injection, schedule: Q01DX009 (ip), vehicle: saline with Tween-80, higher = longer survival) is 102 % of control and 123 % of control.

`O=[N+]([O-])c1nccn1CC(O)CO` (configuration not stated): the T/C (endpoint: median survival time, dose: 1000.0 mg/kg/injection, schedule: Q01DX001 (ip), vehicle: saline, higher = longer survival) was 91 % of control and the T/C (endpoint: median survival time, dose: 2500.0 mg/kg/injection, schedule: Q01DX001 (ip), vehicle: saline, higher = longer survival) was 85 % of control.

On to `C=C(C)C12OC3(c4ccccc4)OC1C1C4OC4(CO)C(O)C4(O)C(=O)C(C)=CC4C1(O3)C(C)C2OC(=O)/C=C/C=C/c1ccccc1` (configuration not stated), for which the T/C runs as follows: (endpoint: median survival time, dose: 6.3 micrograms/kg/injection, schedule: Q01DX009 (ip), vehicle: saline with Tween-80, higher = longer survival) 115 % of control; (endpoint: median survival time, dose: 12.5 micrograms/kg/injection, schedule: Q01DX009 (ip), vehicle: saline with Tween-80, higher = longer survival) 99 % of control; (endpoint: median survival time, dose: 25.0 micrograms/kg/injection, schedule: Q01DX009 (ip), vehicle: saline with Tween-80, higher = longer survival) 115 % of control; (endpoint: median survival time, dose: 50.0 micrograms/kg/injection, schedule: Q01DX009 (ip), vehicle: saline with Tween-80, higher = longer survival) 103 % of control; (endpoint: median survival time, dose: 100.0 micrograms/kg/injection, schedule: Q01DX009 (ip), vehicle: saline with Tween-80, higher = longer survival) 98 % of control.

With `Nc1nc(=S)c2[nH]cnc2[nH]1`, under “endpoint: median survival time, dose: 48.0 mg/kg/injection, schedule: Q01DX001 (ip), vehicle: alkali diluted with saline, higher = longer survival”, the T/C was 102 % of control.

For the compound `N=[N+]=CC(=O)CCC(NC(=O)C(CCC(=O)C=[N+]=N)NC(=O)CCC(N)C(=O)O)C(=O)O` (configuration not stated), the T/C is 95 % of control (endpoint: median survival time, dose: 0.1 mg/kg/injection, schedule: Q01DX009 (ip), vehicle: saline, higher = longer survival); 95 % of control (endpoint: median survival time, dose: 0.2 mg/kg/injection, schedule: Q01DX009 (ip), vehicle: saline, higher = longer survival); 94 % of control (endpoint: median survival time, dose: 0.4 mg/kg/injection, schedule: Q01DX009 (ip), vehicle: saline, higher = longer survival); 91 % of control (endpoint: median survival time, dose: 0.8 mg/kg/injection, schedule: Q01DX009 (ip), vehicle: saline, higher = longer survival); 98 % of control (endpoint: median survival time, dose: 1.6 mg/kg/injection, schedule: Q01DX009 (ip), vehicle: saline, higher = longer survival); 113 % of control (endpoint: median survival time, dose: 12.5 micrograms/kg/injection, schedule: Q01DX009 (ip), vehicle: saline, higher = longer survival). For the same compound, the T/C (endpoint: median survival time, dose: 25.0 micrograms/kg/injection, schedule: Q01DX009 (ip), vehicle: saline, higher = longer survival) was 117 % of control; the T/C (endpoint: median survival time, dose: 50.0 micrograms/kg/injection, schedule: Q01DX009 (ip), vehicle: saline, higher = longer survival) is 97 % of control; the T/C (endpoint: median survival time, dose: 100.0 micrograms/kg/injection, schedule: Q01DX009 (ip), vehicle: saline, higher = longer survival) was 102 % of control; the T/C (endpoint: median tumor weight (est.), dose: 0.2 mg/kg/injection, schedule: Q01DX009 (ip), vehicle: saline, higher = larger tumour) is 86 % of control.

For `CC(C)CCC[C@@H](C)[C@H]1CC[C@H]2[C@@H]3CC=C4C[C@@H](O)CC[C@]4(C)[C@H]3CC[C@]12C`, the T/C by setting is: (endpoint: median survival time, dose: 12.5 mg/kg/injection, schedule: Q01DX009 (ip), vehicle: other, higher = longer survival) 120 % of control; (endpoint: median survival time, dose: 25.0 mg/kg/injection, schedule: Q01DX009 (ip), vehicle: other, higher = longer survival) 96 % of control; (endpoint: median survival time, dose: 50.0 mg/kg/injection, schedule: Q01DX009 (ip), vehicle: other, higher = longer survival) 119 % of control.

`N[C@H](C(=O)O)[C@H]1ON=C(Cl)[C@@H]1O`: the T/C by setting is: (endpoint: median survival time, dose: 8.0 mg/kg/injection, schedule: Q01DX009 (ip), vehicle: saline, higher = longer survival) 113 % of control; (endpoint: median survival time, dose: 16.0 mg/kg/injection, schedule: Q01DX009 (ip), vehicle: saline, higher = longer survival) 114 % of control; (endpoint: median survival time, dose: 32.0 mg/kg/injection, schedule: Q01DX009 (ip), vehicle: saline, higher = longer survival) 108 % of control; (endpoint: median survival time, dose: 128.0 mg/kg/injection, schedule: Q01DX009 (ip), vehicle: saline, higher = longer survival) 114 % of control; (endpoint: median survival time, dose: 256.0 mg/kg/injection, schedule: Q01DX009 (ip), vehicle: saline, higher = longer survival) 114 % of control; (endpoint: median survival time, dose: 500.0 mg/kg/injection, schedule: Q01DX009 (ip), vehicle: saline with Tween-80, higher = longer survival) 117 % of control.

`CCN1C=C/C(=C/c2cc3scc(-c4ccccc4)[n+]3c3ccccc23)c2ccccc21`: for the setting “endpoint: median survival time, dose: 0.15 mg/kg/injection, schedule: Q01DX009 (ip), vehicle: Klucel (hydroxypropylcellulose) (HPC), higher = longer survival”, the T/C is 107 % of control.

For the compound `NCCc1ccc(O)c(O)c1`, the T/C by setting is: (endpoint: median survival time, dose: 100.0 mg/kg/injection, schedule: Q01DX009 (ip), vehicle: saline, higher = longer survival) 107 % of control; (endpoint: median survival time, dose: 200.0 mg/kg/injection, schedule: Q01DX009 (ip), vehicle: saline, higher = longer survival) 106 % of control; (endpoint: median survival time, dose: 400.0 mg/kg/injection, schedule: Q01DX009 (ip), vehicle: saline, higher = longer survival) 97 % of control; (endpoint: median survival time, dose: 600.0 mg/kg/injection, schedule: Q01DX009 (ip), vehicle: saline, higher = longer survival) 110 % of control.

Consider `CSCS(=O)C[C@H](CO)NC(=O)/C=C/c1c(C)[nH]c(=O)[nH]c1=O` (some centres not stated), for which the T/C (endpoint: median survival time, dose: 0.08 mg/kg/injection, schedule: Q01DX009 (ip), vehicle: water, higher = longer survival) is 90 % of control; the T/C (endpoint: median survival time, dose: 0.15 mg/kg/injection, schedule: Q01DX009 (ip), vehicle: water, higher = longer survival) was 112 % of control; the T/C (endpoint: median survival time, dose: 0.3 mg/kg/injection, schedule: Q01DX009 (ip), vehicle: water, higher = longer survival) was 96 % of control; the T/C (endpoint: median survival time, dose: 0.6 mg/kg/injection, schedule: Q01DX009 (ip), vehicle: water, higher = longer survival) is 100 % of control.

Consider `CN(N=O)C(=O)N[C@@H](C=O)[C@@H](O)[C@H](O)[C@H](O)CO`, for which the T/C is, setting by setting: (endpoint: median survival time, dose: 20.0 mg/kg/injection, schedule: Q01DX009 (ip), vehicle: other, higher = longer survival) 113 % of control; (endpoint: median survival time, dose: 40.0 mg/kg/injection, schedule: Q01DX009 (ip), vehicle: other, higher = longer survival) 123 % of control; (endpoint: median survival time, dose: 80.0 mg/kg/injection, schedule: Q01DX009 (ip), vehicle: other, higher = longer survival) 106 % of control.
